The nature of series [1]: pKcycl measured values of existing rhodamine derivatives (model structures). Format: physicochemical. The conditions noted are these: Table 1, model structures. The text has this:
A formula that calculates pKcycl from the free energy difference of the closed-ring form/ring-opened form by the analyzed cationic reaction was derived, assuming that acid-base equilibrium (lateral direction in the model) is reached quickly enough in the HM groups and amino groups. When the calculation results of close-1, open-1 were used as this free energy difference, it was understood that pKcycl of existing derivatives is accurately reproduced.

The test system of series [2] is SHIN3 cells disseminated intraperitoneally. The series can be described thus: In vivo imaging using cancer peritoneal dissemination model mice. The conditions noted are these: 100 μM, 300 μL intraperitoneally, five minutes after administration. As to the method: A quantity of 300 μL of 100 μM fluorescent probes 1 and 2 was injected intraperitoneally into model mice that had been injected intraperitoneally with SHIN3. After five minutes, the mice were placed under isoflurane anesthesia and laparotomized, and imaging was conducted by a Maestro imager.
Fluorescence spectrum imaging was conducted using a mouse model in which SHIN3 cells had been disseminated intraperitoneally. SHIN3-disseminated model mice were established by intraperitoneally injecting 3×10^6 SHIN3 cells suspended in 300 μL of PBS(−) into seven-week-old female nude mice. The experiment was conducted 29-30 days after injection. The probe solution (100 μM, 300 μL) dissolved in PBS(−) was injected intraperitoneally and allowed to stand for five minutes. The mice were then anesthetized by inhalation of isoflurane, and the skin of the abdomen was cut open. The intestine was removed from the incision, placed on a black rubber plate, and the mesentery was spread. It was applied dropwise to the spread mesentery. Fluorescence imaging was conducted using a Maestro™ Ex In-Vivo Imaging System (CRi Inc.). […] An image with the wavelength of fluorescence derived from the probe cut out or an image spectrally unmixed with autofluorescence is shown. […]

Series [3] deals with γ-Glutamyl transpeptidase (GGT). In words: Enzyme assay of fluorescent probes: fluorescence intensity change on GGT addition. Format: biochemical. The conditions noted are these: 1 μM probe, 10 mM NaPi buffer pH 7.4, 37° C., 1.1 U GGT; 585 nm (probe 1), 613 nm (probe 2). As to the method: γ-Glutamyl transpeptidase (GGT) was added to fluorescent probes 1 and 2 of the present invention, and the changes in fluorescence intensity were measured.
Fluorescent probe 1 or 2 was dissolved to make 1 μM in 2.5 mL of 10 mM NaPi buffer (pH 7.4) containing 0.03% DMSO. The solution, kept at 37° C., was stirred using a magnetic stirrer, and the fluorescence intensity was measured. 1.1 U of GGT was added two minutes after the start of measurement in experiments other than the negative control. The fluorescence intensity of fluorescent probe 1 at 585 nm was measured for a total of 6000 seconds and the fluorescence intensity of probe 2 at 613 nm was measured for a total of 2400 seconds, and plotted as a function of time elapsed. The excitation wavelength was 550 nm for fluorescent probe 1 and 593 nm for fluorescent probe 2; the slit width was 2.4 nm, 5.0 nm for both excitation and fluorescence, and the photomultiplier tube voltage was 700 V.
As a result, the fluorescence intensity was confirmed to increase due to addition of GGT in the case of both fluorescent probes 1 and 2. The quantum yield of fluorescent probe 1 was 0.58 at pH 3.0. The quantum yield of fluorescent probe 2 was 0.26 at pH 3.0.

Series [4] is described as follows: Fluorescence quantum yield. In kind it is physicochemical. Conditions: pH 3.0.
Series [5] in a line: Absorption/fluorescence spectrum measurement of the fluorescent probes (pKcycl from absorption spectra). Format: physicochemical. Conditions: computed from absorption spectra (FIG. 2, FIG. 4). The text has this: The absorption spectra and fluorescence spectra of fluorescent probe 1 (gGlu-MHM4ThPCR550) and fluorescent probe 2 (gGlu-HM3ThPSiR600) synthesized in Example 1 were each measured.
FIGS. 2 and 3 respectively show the absorption spectra and fluorescence spectra of fluorescent probe 1 (gGlu-MHM4ThPCR550) and, as a comparison, MHM4ThPCR550 having no gGlu group. The pKcycl values computed from the results in FIG. 2 are shown below in Table 3.
The absorption spectra of HM3ThPSiR600 and HM3ThPAcSiR600 having no gGlu group are also shown as a comparison.

The structures appear in SMILES notation.

Consider `N=c1ccc2c(-c3ccccc3CO)c3ccc(N)cc3oc-2c1` [HMRG], for which the “pKcycl (Measured)” value in series [1] amounted to 8.1.

Take `CC1OC2(c3ccc(N)cc3C(C)(C)c3cc(NC(=O)CC[C@H](N)C(=O)O)ccc32)c2ccsc21` (stereo partly drawn) [fluorescent probe 1]: the “fluorescence imaging of tumors on the mesentery” value in series [2] is “small tumors having adequate contrast from the background could be observed”. Besides, in series [3], the “change in fluorescence intensity due to addition of GGT” value is listed as “increase”. In addition, the quantum yield in series [4] stood at 0.58. The “pKcycl (Measured)” value in series [5] turned out to be 6.3.

As to `C[Si]1(C)c2cc(N)ccc2C2(OCc3sccc32)c2ccc(NC(=O)CC[C@H](N)C(=O)O)cc21` (stereo partly drawn) [fluorescent probe 2], in series [2], the “fluorescence imaging of tumors on the mesentery” value is reported as “small tumors having adequate contrast from the background could be observed”. Moreover, in series [3], the “change in fluorescence intensity due to addition of GGT” value is listed as “increase”. Further, in series [4], the quantum yield was 0.26. Moreover, the “pKcycl (Measured)” value in series [5] was 5.4.

Source of the values: patent publication US20200087516A1, “RED FLUORESCENT PROBE FOR USE IN DETECTION OF PEPTIDASE ACTIVITY” (The University of Tokyo, priority 2017, published 2020).
